Some test systems named below: CAKI-1 renal; HCT-116 colon; HL-60(TB) leukemia; MDA-MB-231 breast; MOLT-4 leukemia; NCI-H226 lung; NCI-H522 lung; PC-3 prostate; SK-MEL-2 melanoma; SR leukemia.
Holding throughout (test): inhibition of tumour cell growth, NCI panel, 48 h

Values joined by “and” are separate entries in the source; they are usually repeats but may differ in a detail not shown here. Equal entries are not always repeated.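 Results reflect a 48-hour exposure of cells in 96-well plates to compound at five concentrations. The concentration for 50% growth inhibition is given as GI50. At the TGI there is no net growth.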

`O=C1OC(C(O)CO)C(O)=C1O` (stereo not drawn): the GI50 in the assay with CAKI-1 renal is 1880 µM and 2150 µM; with HCT-116 colon, 250000 nM and 641000 nM; in the assay on HL-60(TB) leukemia, 5590 µM and 5090 µM; in the assay on MDA-MB-231 breast, 1460 µM and 1440 µM; in the assay on MOLT-4 leukemia, 2130 µM and 1550 µM; in the assay with NCI-H226 lung it was 2150 µM and 4450 µM. The GI50 is 1590 µM and 293 µM in the assay on NCI-H522 lung; 2190 µM and > 4180 µM in the assay with PC-3 prostate; 2190 µM in the assay with SK-MEL-2 melanoma; 349000 nM and 292000 nM in the assay on SR leukemia. Further, the TGI is 3350 µM and 4620 µM with CAKI-1 renal; 534 µM and 2110 µM with HCT-116 colon; greater than 10000 µM with HL-60(TB) leukemia; 2820 µM and 2960 µM in the assay with MDA-MB-231 breast; 5040 µM and > 4890 µM in the assay with MOLT-4 leukemia; 4870 µM and > 6830 µM with NCI-H226 lung. The TGI is 3380 µM and > 3070 µM with NCI-H522 lung; 5670 µM and > 5820 µM in the assay with PC-3 prostate; 4940 µM and > 3780 µM in the assay with SK-MEL-2 melanoma; 877 µM and 924 µM with SR leukemia.
As to `COc1ccc(-c2nc(/C=C3\SC(=NCc4ccccc4)NC3=O)c3ccccn23)cc1`, the GI50 with CAKI-1 renal was 1.76 µM; with HCT-116 colon, 276 nM; in the assay with HL-60(TB) leukemia it was 2.1 µM; in the assay on MDA-MB-231 breast it was 1.01 µM; in the assay on MOLT-4 leukemia, 2.72 µM; in the assay with NCI-H226 lung it was 2.47 µM. Besides, the GI50 in the assay with NCI-H522 lung was 0.79 µM; in the assay on PC-3 prostate it was 1.28 µM; in the assay with SK-MEL-2 melanoma, 2.19 µM; in the assay with SR leukemia, 2500 nM. Besides, the TGI in the assay on CAKI-1 renal is 3.55 µM; with HCT-116 colon, 1.06 µM; in the assay on HL-60(TB) leukemia it was 5.11 µM; with MDA-MB-231 breast it was 3.84 µM; in the assay with MOLT-4 leukemia, greater than 100 µM; in the assay on NCI-H226 lung it was 10 µM. For the same compound, the TGI in the assay on NCI-H522 lung is 7.16 µM; in the assay on PC-3 prostate, 4.35 µM; with SK-MEL-2 melanoma, 7.25 µM; with SR leukemia it was greater than 100 µM.
For the compound `N#CC1=C(/N=C/c2ccccc2)Oc2c(ccc3ccccc23)C1c1ccccc1` (stereo not drawn), the GI50 is 0.31 µM with CAKI-1 renal; 427 nM in the assay with HCT-116 colon; 0.295 µM in the assay with HL-60(TB) leukemia; 1.31 µM in the assay with MDA-MB-231 breast; 0.935 µM in the assay with MOLT-4 leukemia; 1.13 µM in the assay on NCI-H226 lung. The GI50 in the assay with NCI-H522 lung is 0.298 µM; in the assay with PC-3 prostate, 0.477 µM; in the assay with SK-MEL-2 melanoma, 1.41 µM; in the assay with SR leukemia, 409 nM. Further, the TGI with CAKI-1 renal was greater than 53.7 µM; in the assay on HCT-116 colon it was greater than 47.8 µM; in the assay on HL-60(TB) leukemia, 0.991 µM; in the assay with MDA-MB-231 breast it was 20.5 µM; with MOLT-4 leukemia, greater than 100 µM; with NCI-H226 lung, greater than 100 µM. Further, the TGI in the assay with PC-3 prostate, in the assay with SK-MEL-2 melanoma and in the assay on SR leukemia was greater than 100 µM throughout.
For the compound `O=C(CCCCCCN1CC(=O)N2[C@@H](c3ccc(Cl)c(Cl)c3)c3[nH]c4ccccc4c3C[C@H]2C1=O)NO`, the GI50 was 3.43 µM with CAKI-1 renal; 1470 nM in the assay on HCT-116 colon; 1.11 µM in the assay with HL-60(TB) leukemia; 3.47 µM in the assay on MDA-MB-231 breast; 1.12 µM with MOLT-4 leukemia; 4.52 µM in the assay with NCI-H226 lung. The GI50 is 3.21 µM in the assay on NCI-H522 lung, 2.39 µM in the assay on PC-3 prostate, 4.07 µM in the assay on SK-MEL-2 melanoma and 689 nM in the assay with SR leukemia. For the same compound, the TGI in the assay with CAKI-1 renal stood at 8.71 µM; in the assay with HCT-116 colon, 6.92 µM; in the assay with HL-60(TB) leukemia it was 4.32 µM; with MDA-MB-231 breast it was 9.31 µM; in the assay on MOLT-4 leukemia, 17.3 µM; in the assay on NCI-H226 lung it was 12.2 µM. Besides, the TGI with NCI-H522 lung amounted to 10.5 µM; with PC-3 prostate it was 10.7 µM; in the assay with SK-MEL-2 melanoma it was 13.2 µM; in the assay with SR leukemia, 3.1 µM.
Regarding `COc1cc(/C=C/C(=O)c2cccc(-n3cc(-c4ccc(Cl)cc4)[nH]c3=O)c2)cc(OC)c1OC`, the GI50 in the assay with CAKI-1 renal was 15.6 µM; in the assay on HCT-116 colon, 1390 nM; in the assay with HL-60(TB) leukemia, 15.7 µM; in the assay on MDA-MB-231 breast, 13.8 µM; in the assay with MOLT-4 leukemia, 5.24 µM; in the assay on NCI-H226 lung, greater than 100 µM. For the same compound, the GI50 is 4.1 µM with NCI-H522 lung, 16.5 µM in the assay on PC-3 prostate, 3.44 µM in the assay with SK-MEL-2 melanoma and 3030 nM in the assay on SR leukemia. Further, the TGI with CAKI-1 renal is 95.5 µM; in the assay on HCT-116 colon it was 2.68 µM; with HL-60(TB) leukemia, greater than 100 µM; with MDA-MB-231 breast, 48.6 µM; with MOLT-4 leukemia, greater than 100 µM; with NCI-H226 lung, greater than 100 µM. Also, the TGI with NCI-H522 lung is 21.9 µM; in the assay on PC-3 prostate, greater than 100 µM; in the assay on SK-MEL-2 melanoma, 12.5 µM; in the assay with SR leukemia it was greater than 100 µM.
With `CSc1nc2sc3c(c2c(=O)n1-c1ccc(C(C)C)cc1)CCC(=O)C3`, the GI50 in the assay with CAKI-1 renal was 2.38 µM; with HCT-116 colon it was 1940 nM; in the assay with HL-60(TB) leukemia it was 2.72 µM; in the assay with MDA-MB-231 breast it was 2.47 µM; in the assay with MOLT-4 leukemia, 2.64 µM; in the assay with NCI-H226 lung, 1.99 µM. Moreover, the GI50 is 1.96 µM with NCI-H522 lung, 1.6 µM in the assay on PC-3 prostate, 2.5 µM in the assay on SK-MEL-2 melanoma and 2140 nM in the assay on SR leukemia. For the same compound, the TGI in the assay on CAKI-1 renal is 6.03 µM; in the assay on HCT-116 colon, 3.73 µM; with HL-60(TB) leukemia, 7.57 µM; in the assay on MDA-MB-231 breast it was 6.3 µM; in the assay with MOLT-4 leukemia, 6.71 µM; with NCI-H226 lung, 4.68 µM. In addition, the TGI in the assay with NCI-H522 lung worked out at 3.72 µM; with PC-3 prostate it was 3.21 µM; in the assay on SK-MEL-2 melanoma, 5.77 µM; in the assay on SR leukemia, 6.02 µM.
For `CCc1cccc(C)c1NC(=O)c1sc2nc3c(cc2c1N)C(=O)CCC3`, the GI50 in the assay on CAKI-1 renal was 0.537 µM; in the assay on HCT-116 colon it was 564 nM; in the assay on HL-60(TB) leukemia, 0.327 µM; in the assay on MDA-MB-231 breast, 1.42 µM; in the assay on MOLT-4 leukemia, 2.62 µM; in the assay with NCI-H226 lung it was 13 µM. The GI50 with NCI-H522 lung was 0.234 µM; with PC-3 prostate, 0.454 µM; with SK-MEL-2 melanoma, 0.365 µM; with SR leukemia it was 501 nM. In addition, the TGI with CAKI-1 renal is greater than 100 µM; with HCT-116 colon, greater than 100 µM; in the assay with MDA-MB-231 breast it was greater than 100 µM; with MOLT-4 leukemia it was greater than 69.6 µM; in the assay on NCI-H226 lung, greater than 100 µM; in the assay with NCI-H522 lung it was 3.82 µM. Besides, the figures for the TGI in the assay with PC-3 prostate, with SK-MEL-2 melanoma and in the assay on SR leukemia were greater than 100 µM, 27.3 µM and greater than 41.1 µM, respectively.
